Assay [1] concerns Trypanosoma cruzi. Put plainly: Antitrypanosomal activity against bloodstream Trypanosoma cruzi Y strain trypomastigote assessed as reduction in parasite viability incubated for 24 hrs by Neubauer chamber based analysis. The format is functional, organism-based.
For another assay, the system named is Leishmania amazonensis. In words: Antileishmanial activity against Leishmania amazonensis promastigotes assessed as reduction in parasite survival measured after 48 hrs by Neubauer counting chamber based analysis. The settings on record: read-out: LD50 (the source's name). The format is functional.
Assay [2] concerns Trypanosoma cruzi. Put plainly: Antitrypanosomal activity against Trypanosoma cruzi Dm28c epimastigotes assessed as reduction in parasite viability incubated for 48 hrs by trypan blue staining based Neubauer counting chamber analysis. The format is functional, organism-based.
Assay [3] concerns Trypanosoma cruzi. Put plainly: Antiparasitic activity against Trypanosoma cruzi DM28c epimastigotes harboring TcMCA3 assessed reduction in parasite viability incubated for 72 hrs by MTT assay. The format is functional, organism-based.

Structures are written as SMILES. Where a SMILES comes first, the peptide text is derived from it. The star is where a group is joined. Cbz = O=C(OCc1ccccc1)*

The record followed here is ChEMBL document CHEMBL5214913, “Cysteine proteases as potential targets for anti-trypanosomatid drug discovery” (Bioorg Med Chem, 2021).

Take `CC(C)[C@H](NC(=O)OCc1ccccc1)C(=O)N[C@H](C=O)Cc1ccccc1` (Cbz-Val-Phe-aldehyde): the results for the half-maximal inhibitory concentration (IC50) in the assay with Trypanosoma cruzi [1] and in the assay with Trypanosoma cruzi [2] were 20.4 µM and 31.7 µM, respectively. In the assay on Leishmania amazonensis, the LC50 was 23.3 µM.
Consider `C=CCc1cccc(/C=N/NC(=O)CN2CCN(Cc3ccccc3)CC2)c1O` [PAC-1], for which, in the assay with Trypanosoma cruzi [3], the IC50 amounted to 14 µM.
